Test system: SK-RC-52.hFAP tumors
Test: Therapeutic efficacy, schedule optimization for combination with L19-IL2
Type: in vivo, mouse (athymic Balb/c AnNRj-Foxn1)
Details: 5 MBq/mouse on day 7
Method: The anti-cancer efficacy was assessed in athymic Balb/c AnNRj-Foxn1 mice bearing SK-RC-52.hFAP tumor in the right flank. Therapy experiments started when the average volume of established tumors had reached 100-150 mm^3. Body weight of the animals and tumor volume were daily measured and recorded. Tumor dimensions were measured with an electronic caliper and tumor volume was calculated with the formula (long side, mm)×(short side, mm)×(short side, mm)×0.5. Animals were euthanized when one or more termination criterium indicated by the experimental license was reached. Prism 7 software (GraphPad Software) was used for data analysis. Different groups were treated with (i) L19-IL2 as single agent at a dose of 0.05 mg/mouse on day 8,10 and 12, (ii) ^177Lu-Tri-ESV6 as single agent at a dose of 5 MBq/mouse on day 7 (iii) ^177Lu-Tri-ESV6+L19-IL2 combination (^177Lu-Tri-ESV6 at a dose of 5 MBq/mouse on day 7 followed by three administrations of L19-IL2 at a dose 0.05 mg/mouse on day 8, 10 and 12—SCHEDULE 1—, or by three administrations of L19-IL2 at a dose 0.05 mg/mouse on day 12, 17 and 22—SCHEDULE 2—, or by a single administration of L19-IL2 at a dose 0.05 mg/mouse on day 8—SCHEDULE 3—, or by a single administration of L19-IL2 at a dose 0.05 mg/mouse on day 12—SCHEDULE 4—or (iv) saline […].

N#CC1CC(F)(F)CN1C(=O)CNC(=O)c1ccnc2c(NC(=O)CCC(=O)NCCNC(=O)CCOCC(COCCC(=O)NCCNC(=O)CCC(=O)Nc3cccc4c(C(=O)NCC(=O)N5CC(F)(F)CC5C#N)ccnc34)(COCCC(=O)NCCNC(=O)CCC(=O)Nc3cccc4c(C(=O)NCC(=O)N5CC(F)(F)CC5C#N)ccnc34)NC(=O)CCC(C(=O)O)N3CCN(CC(=O)[O-])CCN(CC(=O)[O-])CCN(CC(=O)[O-])CC3)cccc12.[177Lu+3] (stereo not shown) [^177Lu-Tri-ESV6-DOTAGA]
therapeutic activity, in words: dose-dependent therapeutic activity
